From publication PMC6486817 (The Journal of organic chemistry, 2018)

Molecular target: butyrylcholinesterase (BuChE)
Assay: modified Ellman photometric anti-cholinesterase assay
Assay type: biochemical

SMILES: CCC[C@H](O)CCCCCC[C@H]1CCC[C@@H]2N[C@H](C)[C@H](OC(=O)/C=C/SC)C[C@H]12 [compound 1, lepadin I]
- IC50: 3.1 µM
